# Data taken from the supplement of paper PMC4862054.
# What was measured:
# Details in all cases: incubation time: 72 h
# [1] = test system: DU-4475; assay: drug sensitivity score (DSS), CellTiter-Glo (DSS (AUC-based score)); higher = stronger drug effect (viability inhibition or cytotoxicity); extreme values may be limits of the assay
# How it was run: (§1)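 Breast cancer cells were seeded into 384-well plates containing compound at 5 concentrations in 10-fold steps over a compound-specific 10,000-fold range and incubated 72 h. After CellTox Green and CellTiter-Glo readings, each plate was normalised to 0.1 % DMSO and a positive kill control. The drug sensitivity score rests on the area under the fitted dose-response curve.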
# [2] = test system: BT-474; assay: as above
# How it was run: as §1
# [3] = test system: HDQ-P1; assay: as above
# How it was run: as §1
# [4] = test system: Hs578T; assay: as above
# How it was run: as §1
# [5] = test system: SK-BR-3; assay: as above
# How it was run: as §1
# [6] = test system: CAL-51; assay: as above
# How it was run: as §1
# [7] = test system: HCC1599; assay: as above
# How it was run: as §1
# [8] = test system: MDA-MB-231; assay: as above
# How it was run: as §1
# [9] = test system: CAL-120; assay: as above
# How it was run: as §1
# [10] = test system: CAL-85-1; assay: as above
# How it was run: as §1
# [11] = test system: BT-474; assay: normalised viability (% of control), CellTiter-Blue; higher = more viable cells (about 100 = DMSO control)
# How it was run: (§2)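 Plates were quality-checked by Z'-factor and normalised to vehicle (100) and a positive kill control (0). The underlying assay incubated breast cancer cell lines for 72 h on 384-well plates with compound, then added 2.5 µl CellTiter-Blue for 2 h at 37 °C and read at 560/590 nm. The value is normalised viability at a single listed concentration of the series.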
# [12] = test system: HDQ-P1; assay: as above
# How it was run: as §2
# [13] = test system: MDA-MB-468; assay: as above
# How it was run: as §2
# [14] = test system: Hs578T; assay: as above
# How it was run: as §2
# [15] = test system: SK-BR-3; assay: as above
# How it was run: as §2
# [16] = test system: CAL-148; assay: as above
# How it was run: as §2
# [17] = test system: CAL-51; assay: as above
# How it was run: as §2
# [18] = test system: HCC1143; assay: as above
# How it was run: as §2
# [19] = test system: HCC1937; assay: as above
# How it was run: as §2
# [20] = test system: HCC1599; assay: as above
# How it was run: as §2
# [21] = test system: MDA-MB-231; assay: as above
# How it was run: as §2
# [22] = test system: CAL-120; assay: as above
# How it was run: as §2
# [23] = test system: MFM-223; assay: as above
# How it was run: as §2
# [24] = test system: CAL-85-1; assay: as above
# How it was run: as §2
smiles,measurement,setting,value
NC(=O)Nc1cc(-c2cccc(F)c2)sc1C(=O)N[C@H]1CCCNC1 [AZD7762],drug sensitivity score,[1],0
same,drug sensitivity score,[2],4.13
same,drug sensitivity score,[3],3.06
same,drug sensitivity score,[4],3.86
same,drug sensitivity score,[5],3.78
same,drug sensitivity score,[6],1.07
same,drug sensitivity score,[7],6.96
same,drug sensitivity score,[8],5.67
same,drug sensitivity score,[9],2.9
same,drug sensitivity score,[10],9.45
NCC(=O)CCC(=O)O [Aminolevulinic acid],normalised viability,[11]; 10 nM,115%
same,normalised viability,[11]; 1000 nM,119%
same,normalised viability,[11]; 10000 nM,131%
same,normalised viability,[12]; 3 nM,95.2%
same,normalised viability,[12]; 30 nM,105%
same,normalised viability,[12]; 100 nM,110%
same,normalised viability,[13]; 10 nM,101%
same,normalised viability,[13]; 1000 nM,111%
same,normalised viability,[13]; 10000 nM,102%
same,normalised viability,[14]; 10 nM,108%
same,normalised viability,[14]; 1000 nM,104%
same,normalised viability,[14]; 10000 nM,96.3%
same,normalised viability,[15]; 10 nM,96.3%
same,normalised viability,[15]; 1000 nM,108%
same,normalised viability,[15]; 10000 nM,101%
same,normalised viability,[16]; 3 nM,93.8%
same,normalised viability,[16]; 30 nM,101%
same,normalised viability,[16]; 100 nM,98.8%
same,normalised viability,[17]; 3 nM,105%
same,normalised viability,[17]; 30 nM,100%
same,normalised viability,[17]; 100 nM,92.9%
same,normalised viability,[18]; 10 nM,81.1%
same,normalised viability,[18]; 1000 nM,82.6%
same,normalised viability,[18]; 10000 nM,85.2%
same,normalised viability,[19]; 10 nM,86.8%
same,normalised viability,[19]; 1000 nM,84.2%
same,normalised viability,[19]; 10000 nM,86.4%
same,normalised viability,[20]; 10 nM,84.3%
same,normalised viability,[20]; 1000 nM,86.5%
same,normalised viability,[20]; 10000 nM,90.8%
same,normalised viability,[21]; 10 nM,107%
same,normalised viability,[21]; 1000 nM,93.2%
same,normalised viability,[21]; 10000 nM,111%
same,normalised viability,[22]; 10 nM,89.6%
same,normalised viability,[22]; 1000 nM,103%
same,normalised viability,[22]; 10000 nM,104%
same,normalised viability,[23]; 10 nM,92.2%
same,normalised viability,[23]; 1000 nM,91.3%
same,normalised viability,[23]; 10000 nM,87.3%
same,normalised viability,[24]; 3 nM,99.9%
same,normalised viability,[24]; 30 nM,87.1%
same,normalised viability,[24]; 100 nM,98.8%
